The values that follow come from patent US10858365B2, “Triazolo-pyrimidine compounds and uses thereof” (Dizal (Jiangsu) Pharmaceutical Co., Ltd., priority 2018, dated 2020).

Holding throughout (type): cell-based
The target of assay [1] is mA2a (Mus musculus (Mouse), UniProt Q60613). Nature of the assay: cAMP inhibition assay in mA2a/CHO cells. The note with it: adenosine stimulation, read-out: cAMP & FLIPR IC50 (nM) mA2a. How it is done: (§1) hA2a/CHO, hA2b/CHO and mA2a/CHO (Genscript) were plated at 5×10^3 cells/well into 384-well polystyrene plates at the day of experiment. Compounds were pre-incubated with cells for 30 min at 37° C., 5% CO2. Then […] adenosine was added to the cells and incubated for 30 min at 37° C., 5% CO2. Detection reagent (CISBIO) was added and the plates were incubated for 60 min at room temperature. The signal was captured by Envision.
Sequence of mA2a (Q60613 whole entry): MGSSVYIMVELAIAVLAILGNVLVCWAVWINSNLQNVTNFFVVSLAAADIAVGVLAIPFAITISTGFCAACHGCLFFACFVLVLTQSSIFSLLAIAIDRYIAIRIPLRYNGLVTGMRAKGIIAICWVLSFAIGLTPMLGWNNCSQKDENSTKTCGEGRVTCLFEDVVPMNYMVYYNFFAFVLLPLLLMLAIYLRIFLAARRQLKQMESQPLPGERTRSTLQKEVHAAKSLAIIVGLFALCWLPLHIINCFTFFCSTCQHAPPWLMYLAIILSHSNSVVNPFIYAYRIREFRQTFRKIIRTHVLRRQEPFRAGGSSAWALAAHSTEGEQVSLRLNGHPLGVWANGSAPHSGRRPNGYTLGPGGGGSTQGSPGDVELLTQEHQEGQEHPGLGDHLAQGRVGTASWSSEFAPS

The target of assay [2] is hA2b (Homo sapiens (Human), UniProt P29275). The experiment in a line: cAMP inhibition assay in hA2b/CHO cells. The note with it: adenosine stimulation, read-out: cAMP & FLIPR IC50 (nM) hA2b. How it is done:
as §1

In assay [3] the target is hA2a (Homo sapiens (Human), UniProt P29274). The experiment in a line: cAMP inhibition assay in hA2a/CHO cells. As to conditions: adenosine stimulation, read-out: cAMP & FLIPR IC50 (nM) hA2a. In outline:
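CHO cells expressing human A2a, human A2b or mouse A2a, 5×10^3 cells/well, pre-incubated with compound 30 min at 37 °C, then stimulated with […] adenosine 30 min at 37 °C. cAMP read after 60 min room-temperature incubation with detection reagent.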

Assay [4] deals with hA1 (Homo sapiens (Human), UniProt P30542). The experiment in a line: FLIPR inhibition assay in hADORA1/CHO (hA1 expressing) cells. As to conditions: hADORA1/CHO cells, FLIPR calcium, adenosine stimulation; read-out: cAMP & FLIPR IC50 (nM) hA1. In outline: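 CHO cells expressing human A1 were plated at 1×10^4 cells/well the day before, then loaded with FLIPR Calcium 5 dye for 60 min at 37 °C, 5% CO2. Compounds were added at several concentrations for 400 s before stimulation with […] adenosine. The calcium signal was recorded by FLIPR.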
Sequence of hA1 (P30542 whole entry): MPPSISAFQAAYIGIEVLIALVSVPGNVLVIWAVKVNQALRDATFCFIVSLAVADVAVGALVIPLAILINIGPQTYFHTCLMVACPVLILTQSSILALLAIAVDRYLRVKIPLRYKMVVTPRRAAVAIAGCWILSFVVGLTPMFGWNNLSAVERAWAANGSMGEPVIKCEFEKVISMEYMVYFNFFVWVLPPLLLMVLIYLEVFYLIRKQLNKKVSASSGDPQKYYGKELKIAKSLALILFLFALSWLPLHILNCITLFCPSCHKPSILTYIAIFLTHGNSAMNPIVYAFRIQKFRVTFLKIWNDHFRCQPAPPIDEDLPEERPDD

Usually IC50 stands for the concentration at which inhibition is half-maximal.

Sequence of hA2a (P29274 whole entry): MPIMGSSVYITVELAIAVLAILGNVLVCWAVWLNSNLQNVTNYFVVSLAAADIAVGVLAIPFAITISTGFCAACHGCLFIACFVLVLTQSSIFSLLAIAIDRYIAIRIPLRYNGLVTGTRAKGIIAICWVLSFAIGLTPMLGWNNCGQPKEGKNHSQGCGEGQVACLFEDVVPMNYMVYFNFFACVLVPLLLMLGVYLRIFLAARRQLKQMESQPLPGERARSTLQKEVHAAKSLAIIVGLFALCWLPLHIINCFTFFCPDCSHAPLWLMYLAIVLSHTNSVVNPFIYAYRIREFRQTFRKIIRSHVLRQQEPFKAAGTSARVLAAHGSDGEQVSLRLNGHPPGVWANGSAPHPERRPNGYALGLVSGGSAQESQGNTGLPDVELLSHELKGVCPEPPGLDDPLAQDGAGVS
Sequence of hA2b (P29275 whole entry): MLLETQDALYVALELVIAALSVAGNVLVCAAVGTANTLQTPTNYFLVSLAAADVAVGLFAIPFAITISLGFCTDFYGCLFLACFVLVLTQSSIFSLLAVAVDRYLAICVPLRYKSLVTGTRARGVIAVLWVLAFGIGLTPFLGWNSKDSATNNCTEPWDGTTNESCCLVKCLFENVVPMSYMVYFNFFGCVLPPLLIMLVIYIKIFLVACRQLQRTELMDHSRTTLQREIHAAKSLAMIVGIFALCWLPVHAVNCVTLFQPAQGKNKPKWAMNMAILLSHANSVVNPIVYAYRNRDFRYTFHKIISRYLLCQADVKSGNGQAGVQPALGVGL

Regarding `Cn1cc(-c2c(-c3ccccc3Cl)nc(N)n3nc(Cc4ncccc4F)nc23)ccc1=O` [Example 78, 5-(5-amino-7-(2-chlorophenyl)-2-((3-fluoropyridin-2-yl)methyl)-[1,2,4]triazolo[1,5-c]pyrimidin-8-yl)-l-methylpyridin-2(1H)-one], the IC50 in assay [1] is 324 nM; in assay [2], 1260 nM; in assay [3] it was 135 nM; in assay [4], 1160 nM.

Consider `CC(C)n1cc(-c2c(-c3ncco3)nc(N)n3nc(Cc4c(F)cccc4F)nc23)ccc1=O` [Example 79, 5-(5-amino-2-(2,6-difluorobenzy1)-7-(oxazol-2-yl)-[1,2,4]triazolo[1,5-c]pyrimidin-8-yl)-l-isopropylpyrdin-2(1H)-one], for which the IC50 in assay [1] amounted to 0.9 nM; in assay [2], 45 nM; in assay [3], 0.7 nM; in assay [4], 28 nM.

With `CC(C)n1cc(-c2c(-c3ncco3)nc(N)n3nc(Cc4ncccc4F)nc23)ccc1=O` [Example 80, 5-(5-amino-2-((3-fluoropyridin-2-yl)methyl)-7-(oxazol-2-yl)-[1,2,4]triazolo[1,5-c]pyrimidin-8-yl)-1-isopropylpyridin-2(1H)-one], the IC50 in assay [1] was 4.9 nM; in assay [2], 186 nM; in assay [3] it was 3.6 nM; in assay [4], 25 nM.

On to `Cc1cc(-c2c(-c3ncco3)nc(N)n3nc(Cc4c(F)cccc4F)nc23)cc(N)n1` [Example 81, 8-(2-amino-6-methylpyridin-4-yl)-2-(2,6-difluor obenzyl)-7-(oxazol-2-yl)-[1,2,4]triazolo[1,5-c] pyrimidin-5-amine], for which the IC50 in assay [1] came to 164 nM; in assay [2], 9090 nM; in assay [3], 49 nM; in assay [4] it was 5320 nM.

Take `Cc1cc(-c2c(-c3ncco3)nc(N)n3nc(Cc4ncccc4F)nc23)cc(Cl)n1` [Example 82, 8-(2-chloro-6-methylpyridin-4-yI)-2-((3-fluoropyridin-2-yl)methyl)-7-(oxazol-2-yl)-[l,2,4]triazolo [1,5-c]pyrimidin-5-amine]: the IC50 in assay [1] came to 63 nM; in assay [2], 2910 nM; in assay [3] it was 25 nM; in assay [4] it was 2640 nM.

As to `Cc1cc(-c2c(-c3ncco3)nc(N)n3nc(Cc4c(F)cccc4F)nc23)cc(C#N)n1` [Example 83, 4-(5-amino-2-(2,6-difluorobenzyl)-7-(oxazol-2-yl)-[1,2,4]triazolo[1,5-c]pyrimidin-8-yl)-6-methylpicolinonitrile], the IC50 in assay [1] came to 76 nM; in assay [2] it was 10000 nM; in assay [3], 18 nM; in assay [4], 923 nM.

Consider `Cc1cc(-c2c(-c3ncco3)nc(N)n3nc(Cc4c(F)cccc4F)nc23)cc(C2CC2)n1` [Example 84, 8-(2-cyclopropyl-6-methylpyridin-4-yl)-2-(2,6-difluorobenzyl)-7-(oxazol-2-yl)-[1,2,4]triazolo[1,5-c]pyrimidin-5-amine], for which the IC50 turned out to be 428 nM in assay [1], 10000 nM in assay [2], 60 nM in assay [3] and 2720 nM in assay [4].

Regarding `Cc1cc(-c2c(-c3ncco3)nc(N)n3nc(Cc4ncccc4F)nc23)cc(OC(F)F)n1` [Example 87], the IC50 in assay [1] stood at 90 nM; in assay [2] it was 5800 nM; in assay [3] it was 27 nM; in assay [4], 4050 nM.

Regarding `Nc1nc(-c2ccc(F)cc2)c(-c2ccc3ncsc3c2)c2nc(Cc3ncccc3F)nn12` [Example 88, 8-(benzo[d]thiazol-6-yl)-7-(4-fluorophenyl)-2-((3-fluoropyridin-2-yl)methyl)-[1,2,4]triazolo[1,5-c]pyrmidin-5-amine], the IC50 in assay [1] came to 2.6 nM; in assay [2], 47 nM; in assay [3], 0.7 nM; in assay [4] it was 110 nM.

In the case of `Nc1nc(-c2ccc(F)cc2)c(-c2ccc3ncccc3c2)c2nc(Cc3ncccc3F)nn12` [Example 89, 7-(4-fluorophenyl)-2-[(3-fluoropyridin-2-yl)methyl]-8-(quinolin-6-yl)-[1,2,4]triazolo[1,5-c]pyrimidin-5-amine], the IC50 in assay [1] turned out to be 1.3 nM; in assay [2], 82 nM; in assay [3], 0.4 nM; in assay [4], 132 nM.

For the molecule `Cn1cnc2ccc(-c3c(-c4ncco4)nc(N)n4nc(Cc5ncccc5F)nc34)cc21` [Example 90, 2-((3-fluoropyridin-2-yl)methyl)-8-(1-methyl-1H-benzo[d]imidazol-6-yl)-7-(oxazol-2-yl)-[1,2,4] triazolo[1,5-c]pyrimidin-5-amine], the IC50 in assay [1] came to 3.5 nM; in assay [2] it was 48 nM; in assay [3], 1.8 nM; in assay [4], 72 nM.

With `Cn1cnc2ccc(-c3c(-c4ncco4)nc(N)n4nc(Cc5c(F)cccc5F)nc34)cc21` [Example 91, 2-(2,6-difluorobenzyl)-8-(1-methyl-1H-benzo[d]imidazol-6-yl)-7-(oxazol-2-yl)-[1,2,4]triazolo[1,5-c]pyrimidin-5-amine], the IC50 is 5.1 nM in assay [1], 102 nM in assay [2], 2.6 nM in assay [3] and 206 nM in assay [4].

In the case of `Cn1cc(-c2c(-c3ccccn3)nc(N)n3nc(Cc4c(F)cccc4F)nc23)ccc1=O` [Example 92, 5-[5-amino-2-[(2,6-difluorophenyl)methyl]-7-(pyridin-2-yl)-[1,2,4]triazolo[1,5-c]pyrimidin-8-yl]-1-methyl-1,2-dihydropyridin-2-one], the IC50 in assay [1] amounted to 11 nM; in assay [2] it was 680 nM; in assay [3], 8 nM; in assay [4] it was 13 nM.

On to `Nc1nc(-c2ccc(F)cc2)c(-c2ccc(=O)n(CCO)c2)c2nc(Cc3ncccc3F)nn12` [Example 95, 5-(5-amino-7-(4-fluorophenyl)-2-((3-fluoropyridin-2-yl)methyl)-[1,2,4]triazolo[1,5-c]pyrimidin-8-yl)-l-(2-hydroxyethyl)pyridin-2(1H)-one], for which the IC50 was 8.9 nM in assay [1], 241 nM in assay [2], 3.7 nM in assay [3] and 27 nM in assay [4].

As for `Nc1nc(-c2ccc(F)cc2)c(-c2ccc3nccnc3c2)c2nc(Cc3ncccc3F)nn12` [Example 96, 7-(4-fluorophenyl)-2-((3-fluoropyridin-2-yl)methyl)-8-(quinoxalin-6-yl)-[l,2,4]triazolo[l,5-c] pyrimidin-5-amine], the IC50 was 123 nM in assay [1], 3800 nM in assay [2], 25 nM in assay [3] and 681 nM in assay [4].

Take `Cn1cc(-c2c(-c3ccc4c(ccn4C)c3)nc(N)n3nc(Cc4ncccc4F)nc23)ccc1=O` [Example 97, 5-(5-amino-2-((3-fluoropyridin-2-yl)methyl)-7-(1-methyl-1H-indol-5-yl)-[1,2,4]triazolo[1,5-c]pyrimidin-8-yl)-1-methylpyridin-2(1H)-one]: the 50% inhibitory concentration (IC50) in assay [1] worked out at 120 nM; in assay [2], 1720 nM; in assay [3], 47 nM; in assay [4] it was 19 nM.

On to `COc1ccccc1-c1nc(N)n2nc(Cc3ncccc3F)nc2c1-c1ccc(=O)n(C)c1` [Example 98, 5-(5-amino-2-((3-fluoropyridin-2-yl)methyl)-7-(2-methoxyphenyl)-[1,2,4]triazolo[1,5-c]pyrimidin-8-yl)-1-methylpyridin-2(1H)-one], for which the IC50 in assay [1] is 224 nM; in assay [2], 1540 nM; in assay [3], 88 nM; in assay [4], 333 nM.

As to `Cc1cnc2ccc(-c3c(-c4ncco4)nc(N)n4nc(Cc5ncccc5F)nc34)cn12` [Example 99, 2-((3-fluoropyridin-2-yl)methyl)-8-(3-methylimidazo[l,2-a]pyridin-6-yl)-7-(oxazol-2-yl)-[l,2,4] triazolo[l,5-c]pyrimidin-5-amine], the IC50 amounted to 0.8 nM in assay [1], 21 nM in assay [2], 0.5 nM in assay [3] and 3.5 nM in assay [4].

Consider `Cc1cnc2ccc(-c3c(N(C)C)nc(N)n4nc(Cc5ncccc5F)nc34)cn12` [Example 100, 2-[(3-fluoropyridin-2-yl)methyl]-N7,N7-dimethyl-8-[3-methylimidazo[1,2-a]pyridin-6-yl]-[1,2,4]triazolo[1,5-c]pyrimidine-5,7-diamine], for which the IC50 in assay [1] worked out at 3.5 nM; in assay [2], 38 nM; in assay [3] it was 1.2 nM; in assay [4], 11.8 nM.

In the case of `Cc1cnc2ccc(-c3c(N4CCCC4)nc(N)n4nc(Cc5ncccc5F)nc34)cn12` [Example 101, 2-((3*fluoropyridin-2-yl)methyl)-8-(3-methylimidazo[1,2-a]pyridin-6-yl)-7-(pyrrolidin-1-yl)-[1,2, 4]triazolo[l,5-c]pyrimidin-5-amine], the IC50 came out at 58.1 nM in assay [1], 203 nM in assay [2], 8.2 nM in assay [3] and 6.6 nM in assay [4].
